Data on 26 compounds can be found in US20090264415A2 (priority 2004, published 2009).

pIC50: −log10 of the molar value.

The assay has as its system peripheral blood mononuclear cells (PBMC) stimulated with allogeneic PBMC or EBV-transformed human B cells (RPMI1788). Kind of assay: Mixed lymphocyte reaction (MLR) assay. The class given is cell-based. As to conditions: Homo sapiens, RPMI-1788; MLR assay of example 319; read-out: MLR IC50. The method in brief:
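Compounds, held as 10 mM DMSO stocks and diluted in culture medium, were added to PBMC stimulated by 30 Gy-irradiated allogeneic PBMC or RPMI1788 cells. Proliferation was read as [3H]-thymidine uptake (1 μCi, final 16 h) after 5 days at 37° C. Inhibition was derived from cpm.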
Consider `Cc1cccc(NC(=O)N2CCN(c3nc(N)nc4ccc(-c5c(C)cccc5C)nc34)CC2)c1` [Example 550, 2-amino-4-[(3-methylphenylcarbamoyl)-piperazin-1-yl]-6-(2,6-dimethyl-phenyl)-pyrido[3,2-d]pyrimidine], for which the negative-log IC50 (pIC50) – broadly, −log10 of the IC50, conventionally taken in molar units – was 5.46. The result for `Cc1cccc(NC(=O)N2CCN(c3nc(N)nc4ccc(-c5c(F)cc(F)cc5F)nc34)CC2)c1` [Example 551, 2-amino-4-[(3-methylphenylcarbamoyl)-piperazin-1-yl]-6-(2,4,6-trifluoro-phenyl)-pyrido[3,2-d]pyrimidine] reads 6.30; that for `Cc1cccc(NC(=O)N2CCN(c3ncnc4ccc(-c5ccc(C#N)cc5)nc34)CC2)c1` [Example 553, 4-[(3-methylphenylcarbamoyl)-piperazin-1-yl]-6-(4-cyanophenyl) Pyrido[3,2-d]pyrimidine], 7.22; that for `Cc1cccc(NC(=O)N2CCN(c3ncnc4ccc(-c5cccc(C#N)c5)nc34)CC2)c1` [Example 554, 4-[(3-methylphenylcarbamoyl)-piperazin-1-yl]-6-(3-cyanophenyl)pyrido[3,2-d]pyrimidine], 7.43. The result for `Cc1cccc(NC(=O)N2CCN(c3ncnc4ccc(-c5ccc(F)c(C)c5)nc34)CC2)c1` [Example 555, 4-[(3-methylphenylcarbamoyl)-piperazin-1-yl]-6-(3-methyl-4-fluoro-phenyl)pyrido[3,2-d]pyrimidine] reads 6.52; that for `Cc1cccc(NC(=O)N2CCN(c3ncnc4ccc(-c5ccc(F)cc5F)nc34)CC2)c1` [Example 556, 4-[(3-methylphenylcarbamoyl)-piperazin-1-yl]-6-(2,4-difluorophenyl)pyrido[3,2-d]pyrimidine], 7.00; that for `Cc1cccc(NC(=O)N2CCN(c3ncnc4ccc(-c5ccccc5C#N)nc34)CC2)c1` [Example 557, 4-[(3-methylphenylcarbamoyl)-piperazin-1-yl]-6-(2-cyanophenyl)pyrido[3,2-d]pyrimidine], 7.52. The result for `Cc1cccc(NC(=O)N2CCN(c3ncnc4ccc(-c5ccc(F)cc5)nc34)CC2)c1` [Example 558, 4-[(3-methylphenylcarbamoyl)-piperazin-1-yl]-6-(4-fluorophenyl)pyrido[3,2-d]pyrimidine] reads 7.41. On to `CCOc1ccc(-c2ccc3ncnc(N4CCN(C(=O)Nc5cccc(C)c5)CC4)c3n2)cc1F` [Example 559, 4-[(3-methylphenylcarbamoyl)-piperazin-1-yl]-6-(3-fluoro-4-ethoxyphenyl)pyrido[3,2-d]pyrimidine], for which the pIC50 was 6.75.

Regarding `CCOc1ccc(-c2ccc3ncnc(N4CCN(C(=O)Nc5cccc(C)c5)CC4)c3n2)cc1Cl` [Example 560, 4-[(3-methylphenylcarbamoyl)-piperazin-1-yl]-6-(3-chloro-4-ethoxyphenyl)pyrido[3,2-d]pyrimidine], the pIC50 is 6.42. Regarding `Cc1cccc(NC(=O)N2CCN(c3ncnc4ccc(-c5cc(F)c(F)c(F)c5)nc34)CC2)c1` [Example 561, 4-[(3-methylphenylcarbamoyl)-piperazin-1-yl]-6-(3,4,5-trifluorophenyl)pyrido[3,2-d]pyrimidine], the negative logarithm of the IC50 (pIC50) is 6.38. The result for `Cc1cccc(NC(=O)N2CCN(c3ncnc4ccc(-c5cccs5)nc34)CC2)c1` [Example 562, 4-[(3-methylphenylcarbamoyl)-piperazin-1-yl]-6-(2-thienyl)pyrido[3,2-d]pyrimidine] reads 7.28; that for `Cc1cccc(NC(=O)N2CCN(c3ncnc4ccc(-c5ccco5)nc34)CC2)c1` [Example 563, 4-[(3-methylphenylcarbamoyl)-piperazin-1-yl]-6-(2-furanyl)pyrido[3,2-d]pyrimidine], 7.44; that for `CC(C)(C)OC(=O)N1CCN(c2nc(Cl)nc3ccc(-c4ccc(F)cc4)nc23)CC1` [Example 566, 2-chloro-6-(4-fluorophenyl)-4-(4-Boc-piperazino)pyrido[3,2-d]pyrimidine], below 5.00. The result for `CC(C)(C)OC(=O)N1CCN(c2nc(N3CCCC3)nc3ccc(-c4ccc(F)cc4)nc23)CC1` [Example 567, 6-(4-fluorophenyl)-4-(4-Boc-piperazino)-2-pyrrolidino-pyrido[3,2-d]pyrimidine] reads below 5.00; that for `CC(C)(C)OC(=O)N1CCN(c2nc(NC3CCCC3)nc3ccc(-c4ccc(F)cc4)nc23)CC1` [Example 568, 2-cyclopentylamino-6-(4-fluorophenyl)-4-(4-Boc-piperazino)-pyrido[3,2-d]pyrimidine], 5.19. The figure for `CNc1nc(N2CCN(C(=O)OC(C)(C)C)CC2)c2nc(-c3ccc(F)cc3)ccc2n1` [Example 569, 2-methylamino-6-(4-fluorophenyl)-4-(4-Boc-piperazino)-pyrido[3,2-d]pyrimidine and 2,4-dimethylamino-6-(4-fluorophenyl)pyrido[3,2-d]pyrimidine] is 5.23. Turning to `Cc1cccc(NC(=O)N2CCN(c3nc(NC4CCCC4)nc4ccc(-c5ccc(F)cc5)nc34)CC2)c1` [Example 571, 2-cyclopentylamino-6-(4-fluorophenyl)-4-[(3-methylphenylcarbamoyl)-piperazin-1-yl]-pyrido[3,2-d]pyrimidine], the pIC50 is 6.30.

For the compound `O=C(COc1ccc(Cl)cc1)N1CCN(c2nc(NC3CCCC3)nc3ccc(-c4ccc(F)cc4)nc23)CC1` [Example 573, 2-cyclopentylamino-6-(4-fluorophenyl)-4-[N-(4-chlorophenoxyacetyl)-piperazin-1-yl]-pyrido[3,2-d]pyrimidine], the pIC50 is 5.10. The figure for `CNc1nc(N2CCN(C(=O)COc3ccc(Cl)cc3)CC2)c2nc(-c3ccc(F)cc3)ccc2n1` [Example 574, 2-methylamino-4-[N-(4-chlorophenoxyacetyl)-piperazin-1-yl]-6-(4-fluorophenyl)-pyrido[3,2-d]pyrimidine] is 6.47. In the case of `CC(C)(C)OC(=O)N[C@@H]1CCN(c2nc(N)nc3ccc(-c4ccc(F)cc4)nc23)C1` [Example 575, 2-amino-4-[(R)-3-Boc-amino-pyrrolidin-1-yl]-6-(4-fluorophenyl)-pyrido(3,2-d)pyrimidine], the negative logarithm of the IC50 (pIC50) is below 5.00. The result for `CC(C)(C)OC(=O)N[C@H]1CCN(c2nc(N)nc3ccc(-c4ccc(F)cc4)nc23)C1` [Example 576, 2-amino-4-[(S)-3-Boc-amino-pyrrolidin-1-yl]-6-(4-fluorophenyl)-pyrido(3,2-d)pyrimidine] reads 5.38; that for `CC(C)(C)OC(=O)N1CCC(Nc2nc(N)nc3ccc(-c4ccc(F)cc4)nc23)C1` [Example 577, 2-amino-4-[(S)-1-Boc-amino-pyrrolidin-3-yl]-6-(4-fluorophenyl)-pyrido(3,2-d)pyrimidine], 5.36; that for `Cc1cccc(NC(=O)N[C@H]2CCN(c3nc(N)nc4ccc(-c5ccc(F)cc5)nc34)C2)c1` [Example 578], below 5.00. For the compound `Cc1cccc(NC(=O)N[C@@H]2CCN(c3nc(N)nc4ccc(-c5ccc(F)cc5)nc34)C2)c1` [Example 579], the negative logarithm of the IC50 (pIC50) was below 5.00. The figure for `Cc1cccc(NC(=O)N2CCC(Nc3nc(N)nc4ccc(-c5ccc(F)cc5)nc34)C2)c1` [Example 580, 2-amino-4-[1-(3-methylphenylcarbamoyl)-(S)-amino-pyrrolidin-3-yl]-6-(4-fluorophenyl)-pyrido(3,2-d)pyrimidine] is 6.52.
